This note sets out measurements from PubChem BioAssay AID651885 (Broad Institute, 2012).

In assay [1] the test system is BESM host cells (bovine embryo skeletal muscle), cytotoxicity. As to the kind of experiment: T. cruzi intracellular amastigote growth inhibition, dose response, imaging, CA-I/72 strain, bovine embryo skeletal muscle, dry powder (AID 651885). The conditions noted are these: T. cruzi CA-I/72 amastigotes in BESM cells, imaging, 72 h; measured here: host BESM cell toxicity.

For assay [2], the system named is T. cruzi CA-I/72 amastigotes in BESM cells, imaging, 72 h. The assay is described as above. As to conditions: for IC90: measured here: parasite IC90, test 4; for IC99: measured here: parasite IC99, test 4.

The compound `C[C@@H]1CN([C@H](C)CO)C(=O)c2cccc(NC(=O)c3ccncc3)c2O[C@H]1CN(C)Cc1ccc(C(F)(F)F)cc1` came in with an IC50 in assay [1] of more than 20 µM. In addition, in assay [2], the IC90 came to 0.472 µM and the IC99 was 4.75 µM.

As for `C[C@@H]1CN([C@H](C)CO)C(=O)c2cccc(NC(=O)c3ccncc3)c2O[C@H]1CN(C)CC1CCCCC1`, in assay [1], the IC50 was more than 20 µM. Also, in assay [2], the IC90 worked out at 28.5 µM and the IC99 stood at 158 µM.

Regarding `C[C@@H]1CN([C@@H](C)CO)C(=O)c2cc(-c3cccnc3)cnc2O[C@H]1CN(C)Cc1ccc(Oc2ccccc2)cc1`, the IC50 in assay [1] was more than 20 µM.

The compound `C[C@@H]1CN([C@@H](C)CO)C(=O)c2cccc(NC(=O)c3ccncc3)c2O[C@H]1CN(C)Cc1ccc2c(c1)OCO2` registered an IC50 in assay [1] of more than 20 µM. In assay [2], this compound showed a 90% effect concentration (IC90) of 0.921 µM and an IC99 of 7.92 µM.

For the compound `CC(C)N1C[C@H](C)[C@@H](CN(C)C(=O)OC(C)(C)C)Oc2c(C(=O)Nc3ccncc3)cccc2C1=O`, in assay [1], the IC50 is more than 20 µM.

Regarding `C[C@H](CO)N1C[C@H](C)[C@@H](CN(C)Cc2ccc(Oc3ccccc3)cc2)Oc2c(NC(=O)c3ccncc3)cccc2C1=O`, in assay [1], the IC50 is more than 20 µM.

In the case of `COc1ccc(CN(C)C[C@@H]2Oc3c(NC(=O)c4ccncc4)cccc3C(=O)N([C@@H](C)CO)C[C@H]2C)cc1`, in assay [1], the half-maximal inhibitory concentration (IC50) is more than 20 µM. For the same compound, in assay [2], the IC90 was 1.58 µM and the IC99 worked out at 15.9 µM.

In the case of `Cc1cc(C(=O)Nc2cccc3c2O[C@@H](CN(C)Cc2ccc(Oc4ccccc4)cc2)[C@H](C)CN([C@@H](C)CO)C3=O)n(C)n1`, the 50% inhibitory concentration (IC50) in assay [1] is more than 20 µM.

`C[C@@H]1CN([C@@H](C)CO)C(=O)c2cccc(NC(=O)c3ccncc3)c2O[C@H]1CN(C)Cc1cccc(Cl)c1` returned an IC50 in assay [1] of more than 20 µM.

In turn, `C[C@H]1CN([C@@H](C)CO)C(=O)c2cccc(NC(=O)c3ccncc3)c2O[C@@H]1CN(C)Cc1ccc(Cl)c(Cl)c1` returned an IC50 in assay [1] of more than 20 µM.

Consider `C[C@H]1CN([C@@H](C)CO)C(=O)c2cccc(NC(=O)c3ccncc3)c2O[C@@H]1CN(C)Cc1ccncc1`, for which the IC50 in assay [1] was more than 20 µM.

With `CNC[C@@H]1Oc2c(NC(=O)c3ccncc3)cccc2C(=O)N(C(C)C)C[C@H]1C`, the IC50 in assay [1] is more than 20 µM.

In assay [1], `C[C@@H]1CN([C@@H](C)CO)C(=O)c2cc(-c3ccncc3)cnc2O[C@H]1CN(C)Cc1ccc(Oc2ccccc2)cc1` came in with an IC50 of 5 µM.

The compound `C[C@@H]1CN([C@@H](C)CO)C(=O)c2cccc(NC(=O)c3ccncc3)c2O[C@@H]1CN(C)Cc1ccc(Oc2ccccc2)cc1` registered an IC50 in assay [1] of more than 20 µM.

`C[C@@H]1CN([C@@H](C)CO)C(=O)c2cccc(NC(=O)c3ccncc3)c2O[C@H]1CN(C)CC1CCCCC1` returned an IC50 in assay [1] of more than 20 µM. In assay [2], this compound returned an IC90 of 6.03 µM and an IC99 of 63.4 µM.

In assay [1], `C[C@@H]1CN([C@H](C)CO)C(=O)c2cccc(NC(=O)c3ccncc3)c2O[C@H]1CN(C)Cc1ccc2c(c1)OCO2` gave an IC50 of more than 20 µM.

In assay [1], `CC(C)N1C[C@H](C)[C@@H](CN(C)Cc2ccc(Cl)cc2)Oc2c(NC(=O)c3ccncc3)cccc2C1=O` displayed an IC50 of more than 20 µM.

In turn, `CC(C)N1C[C@H](C)[C@@H](CN(C)C(=O)OC(C)(C)C)Oc2c(NC(=O)c3ccncc3)cccc2C1=O` showed an IC50 in assay [1] of more than 20 µM.

The compound `C[C@@H]1CN([C@@H](C)CO)C(=O)c2cccc(NC(=O)c3ccncc3)c2O[C@H]1CN(C)Cc1ccc(C(=O)O)cc1` yielded an IC50 in assay [1] of more than 20 µM.

In assay [1], `C[C@@H]1CN([C@@H](C)CO)C(=O)c2cccc(NC(=O)c3cnccn3)c2O[C@H]1CN(C)Cc1ccc(Oc2ccccc2)cc1` yielded an IC50 of more than 20 µM.

Regarding `CC(C)N1C[C@H](C)[C@@H](CN(C)Cc2ccc(Oc3ccccc3)cc2)Oc2c(NC(=O)c3ccccc3)cccc2C1=O`, in assay [1], the IC50 was 16.1 µM.

As to `C[C@@H]1CN([C@@H](C)CO)C(=O)c2cccc(NC(=O)c3ccncc3)c2O[C@H]1CN(C)Cc1ccc(-c2ccccc2)cc1`, the IC50 in assay [1] is more than 20 µM.

In assay [1], `C[C@H]1CN([C@@H](C)CO)C(=O)c2cccc(NC(=O)c3ccncc3)c2O[C@@H]1CN(C)Cc1ccc(Oc2ccccc2)cc1` yielded an IC50 of more than 20 µM.

`C[C@@H]1CN([C@@H](C)CO)C(=O)c2cccc(NC(=O)c3ccncc3)c2O[C@H]1CN(C)C` returned an IC50 in assay [1] of more than 20 µM.

In turn, `COc1ccc(CN(C)C[C@H]2Oc3c(NC(=O)c4ccncc4)cccc3C(=O)N([C@@H](C)CO)C[C@@H]2C)cc1` returned an IC50 in assay [1] of 15.3 µM.

In turn, `COc1ccc(CCN(C)C(=O)C2CCCN(Cc3ccc(OC)c(OC)c3)C2)cc1OC` (stereo not drawn) registered a half-inhibitory concentration (IC50) in assay [1] of more than 20 µM.

Regarding `CNC[C@H]1Oc2c(NC(=O)c3ccccc3)cccc2C(=O)N(C(C)C)C[C@@H]1C`, the IC50 in assay [1] is more than 20 µM.

For the compound `CC(C)N1C[C@H](C)[C@@H](CN(C)C(=O)OC(C)(C)C)Oc2c(C#N)cccc2C1=O`, in assay [1], the IC50 was more than 20 µM.

The compound `CC(C)N(C)C(=O)c1cccc(NC(=O)c2ccncc2)c1OCCCN(C)Cc1ccc(Cl)cc1` displayed an IC50 in assay [1] of more than 20 µM.

As for `C[C@H]1CN([C@@H](C)CO)C(=O)c2cccc(NC(=O)c3ccncc3)c2O[C@H]1CN(C)Cc1ccc(Oc2ccccc2)cc1`, in assay [1], the IC50 was more than 20 µM.

For the compound `C[C@@H]1CN([C@@H](C)CO)C(=O)c2cccc(NC(=O)c3ccncc3)c2O[C@H]1CN(C)Cc1ccc(Cl)cc1`, the IC50 in assay [1] was more than 20 µM.

`C[C@@H]1CN([C@@H](C)CO)C(=O)c2cccc(NC(=O)c3ccncc3)c2O[C@H]1CN(C)Cc1ccc(Oc2ccccc2)cc1` came in with an IC50 in assay [1] of more than 20 µM. In addition, in assay [2], the concentration for half-maximal inhibition (IC50) was 0.011 µM, the 90% effect concentration (IC90) was determined as 0.108 µM and the IC99 was 1.19 µM.

Turning to `C[C@H](CO)N1C[C@H](C)[C@H](CN(C)Cc2ccc(Oc3ccccc3)cc2)Oc2c(NC(=O)c3ccncc3)cccc2C1=O`, the 50% inhibitory concentration (IC50) in assay [1] is more than 20 µM.

On to `C[C@@H]1CN([C@@H](C)CO)C(=O)c2cc(Br)cnc2O[C@H]1CN(C)Cc1ccc2c(c1)OCO2`, for which, in assay [1], the half-inhibitory concentration (IC50) was more than 20 µM.

Compound `C[C@@H]1CN([C@@H](C)CO)C(=O)c2cccc(NC(=O)c3ccncc3)c2O[C@H]1CN(C)Cc1ccccc1Cl` gave an IC50 in assay [1] of more than 20 µM.

As to `CC(C)N1C[C@H](C)[C@@H](CN(C)C(=O)OC(C)(C)C)Oc2c(NC(=O)c3cccnc3)cccc2C1=O`, the IC50 in assay [1] is more than 20 µM.

In assay [1], `C[C@@H]1CN([C@H](C)CO)C(=O)c2cccc(NC(=O)c3ccncc3)c2O[C@H]1CN(C)Cc1ccc(Oc2ccccc2)cc1` showed a half-inhibitory concentration (IC50) of more than 20 µM. Also, in assay [2], the concentration for an effect of 90% (IC90) was determined as 0.45 µM and the IC99 stood at 4.95 µM.

Regarding `C[C@H]1CN([C@@H](C)CO)C(=O)c2cccc(NC(=O)c3ccncc3)c2O[C@@H]1CN(C)Cc1ccccc1`, the IC50 in assay [1] was more than 20 µM.

For `CC(C)N1C[C@H](C)[C@@H](CN(C)Cc2ccc(Oc3ccccc3)cc2)Oc2c(NC(=O)c3ccncc3)cccc2C1=O`, the IC50 in assay [1] is more than 20 µM.

Regarding `CC(C)N1C[C@H](C)[C@@H](CN(C)C(=O)OC(C)(C)C)Oc2c(C(=O)O)cccc2C1=O`, the IC50 in assay [1] is more than 20 µM.

In turn, `C[C@@H]1CN([C@H](C)CO)C(=O)c2cccc(NC(=O)c3ccncc3)c2O[C@@H]1CN(C)Cc1ccc(Oc2ccccc2)cc1` had a half-maximal inhibitory concentration (IC50) in assay [1] of more than 20 µM. In addition, in assay [2], the IC90 came out at 30.7 µM and the concentration for an effect of 99% (IC99) is 238 µM.

Consider `CCCn1ncc(CN2CCCC(C(=O)c3cccc(OC(C)C)c3)C2)c1C` (stereo not drawn), for which the half-inhibitory concentration (IC50) in assay [1] is more than 20 µM.

In assay [1], `CC(C)N1C[C@H](C)[C@@H](CN(C)Cc2ccccc2)Oc2c(NC(=O)c3ccncc3)cccc2C1=O` returned an IC50 of more than 20 µM.

With `C[C@@H]1CN([C@H](C)CO)C(=O)c2cccc(NC(=O)c3ccncc3)c2O[C@H]1CN(C)Cc1ccccc1`, the IC50 in assay [1] is more than 20 µM.

Compound `CC(C)N1C[C@H](C)[C@@H](CN(C)C(=O)OC(C)(C)C)Oc2c(NC(=O)c3ccccc3)cccc2C1=O` displayed an IC50 in assay [1] of more than 20 µM.

In the case of `CC(C)N1C[C@H](C)[C@@H](CN(C)Cc2ccccc2Cl)Oc2c(NC(=O)c3ccncc3)cccc2C1=O`, the IC50 in assay [1] is more than 20 µM.

As to `C[C@@H]1CN([C@@H](C)CO)C(=O)c2cc(-c3cncnc3)cnc2O[C@H]1CN(C)Cc1ccc(Oc2ccccc2)cc1`, the IC50 in assay [1] was more than 20 µM.

Compound `CC(C)N1C[C@H](C)[C@@H](CN(C)Cc2cccc(Cl)c2)Oc2c(NC(=O)c3ccncc3)cccc2C1=O` displayed an IC50 in assay [1] of 19.1 µM.

In assay [1], `C[C@H]1CN([C@@H](C)CO)C(=O)c2cccc(NC(=O)c3ccncc3)c2O[C@@H]1CN(C)Cc1ccc(C(F)(F)F)cc1` displayed an IC50 of more than 20 µM.

On to `C[C@H]1CN([C@@H](C)CO)C(=O)c2cccc(NC(=O)c3ccncc3)c2O[C@@H]1CN(C)Cc1ccc(C(=O)O)cc1`, for which, in assay [1], the IC50 was more than 20 µM.

With `C[C@H]1CN([C@@H](C)CO)C(=O)c2cccc(NC(=O)c3ccncc3)c2O[C@@H]1CN(C)Cc1ccc(C(=O)Nc2ccccc2N)cc1`, the IC50 in assay [1] was more than 20 µM.
